# Test results published in patent US10201558B2, “Compositions of selenoorganic compounds and methods of use thereof” (Alltech, Inc., priority 2014, dated 2019).
# How the values were obtained:
# Type in all cases: cell-based, human
# [1] = tested on: APOE; test: QRT-PCR of APOE mRNA in IMR-32 cells (normal, control KD, FOXO4 KD); conditions: 24 hours
# Experimental: IMR-32 cells were cultured on 12-well plates for 24 hours and then incubated with FOXO4 siRNA lentiviruses (SC-29650V, Santa Cruz) or control siRNA lentiviruses (sc-108080, Santa Cruz) in the presence of Polybrene (5 μg/ml, Santa Cruz) for 24 hours according to the manufacturer's protocol. These lentiviral siRNA-transfected cells were amplified in normal media for 3 days and then incubated with puromycin for 9-14 days to obtain the stable Control KD (stably transfected with the control siRNAs) and FOXO4KD (stably transfected with Foxo4 siRNAs) cells. These control and Foxo4 KD cells were subjected to cell survival, mitochondrial potential and RNA analysis.
# (§1) Human IMR-32 cells were seeded on gelatinized 6-well (6.5×10^5 cells/well) or 24-well (1.3×10^5 cells/well) plates. Cells were treated with control (0 ppb) or various compounds for 6 hours or 24 hours. Total RNA from these cells was isolated using Trizol (Invitrogen) according to the manufacturer's protocol, and then incubated with DNase I to remove any potential contaminated genomic DNA. Then RNA samples were subjected to real-time PCR analysis using the Applied-Bioscience's RT kit and predesigned Taqman probes (Invitrogen), as described previously (Lan et al EMBO J 2003). The mRNA levels of UCP1, UCP2, UCP3, SLC25A27 (UCP4), SLC25A14 (UCP5), PSEN1, Nicastrin, GSK3B, MAPK11-14, PPARG, APOE, RCAN1, RCAN1.1, G6PC, INSR, IGF1R and FOXO4 were measured. Three to six samples were analyzed in each treatment group. Data were normalized by Actin B (ACTB) or Glyceraldehyde Phosphate Dehydrogenase (GAPDH) mRNA levels in each sample and are presented as mean±SEM of 3-6 samples.
# To explore this possibility, IMR-32 cells were treated with 150 ppb Compound C, Compound D or Compound E (150 ppb) for 6 hours and 24 hours, and then subjected to Western blot and QRT-PCR analyses. […] Therefore, Compound C and Compound D are downregulators of PPARG in IMR-32 cells at both mRNA and protein levels. […]
# [2] = tested on: PPARG; test: Western blot of PPARG protein in IMR-32 cells; conditions: 150 ppb, 6 hours
# Experimental: IMR-32 cells were seeded on 6-well plates and then treated with control and various compounds for 6 hours and 24 hours, as described above. After treatments, cells were rinsed with ice-cold PBS and lysed in ice-cold RIPA buffer containing complete proteinase and phosphatase inhibitors (Thermo-Fisher Scientific, Waltham, Mass.) on ice for 30 min Cell lysates were collected using a cell scraper and transfer pipette and then centrifuged at 12000×g for 30 min at 4° C. to remove the DNA pellet and obtain the protein extract. Protein levels in the supernatant of these cell lysates were determined using the Pierce Micro-BCA protein assay kit (Thermo Scientific-Piece Biotechnology, Rockford, Ill.) according to the manufacturer's protocol […]
# Positive signals on the membrane blots were detected using Amersham's enhanced chemiluminescence (ECL) Western Blotting Prime Detection reagents (GE healthcare Lifescience, Pittsburgh, Pa.). Images of these luminescence signals on the membrane blots were captured using the LI-COR Odyssey Fc Image system (Lincoln, Nebr.). […] Protein band densities in the Western blots were determined using the Li—COR Image studio software or NIH ImageJ software, and then normalized by ACTB protein level in each sample. […]
# [3] = tested on: INSR; test: QRT-PCR of INSR mRNA in IMR-32 cells; conditions: 75 ppb and 150 ppb, 24 hours
# Experimental: as §1
# To examine whether or not Compound C can regulate INSR/IGF1R signaling in IMR-32 cells, QRT-PCR analysis was performed to measure INSR and IGF1R mRNA levels. […] Mean±SEM, n=4. The * refers to a p value <0.05 when compared to the control group (0 ppb).
compound,measurement,setting,value
"C[Se]C[C@H]1O[C@@H](n2cnc3c(N)ncnc32)C(O)C1O (stereo in doubt) [Compound C, 5′-deoxy-5′-methylselenoadenosine]",APOE mRNA expression,"[1]; FOXO4KD cells, 75 ppb and 150 ppb",not significantly altered
same,APOE mRNA levels,"[1]; IMR-32 cells, 150 ppb",significantly decreased
same,APOE mRNA levels,"[1]; control normal cells, 75 ppb and 150 ppb",attenuated
same,PPARG protein expression,[2],markedly attenuated
same,INSR mRNA expression levels,[3],downregulated
